“Also recorded” adds a separate entry of the source.
Key:
[1] = system: MoDCs; experiment: DC-maturation assay (monocyte-derived dendritic cells from human PBMCs); format: cell-based; details: 24 h
Description: Dendritic cells are crucial players in the antigen presentation process and inflammation. […] To validate the functional relevance of SPPL2a inhibitor, a DC-maturation assay was utilized. Human PBMCs were isolated from fresh blood using Histoplaque gradients and plated overnight at 37° C. to allow monocytes to adhere. Non-adherent cells were washed off the following day and DC-differentiation media containing GM-CSF and IL-4 was added and incubated for 5 d. Immature MoDCs were separated and washed. A cocktail of maturation media with SPPL2a inhibitor (at indicated concentrations) was added to the wells and cells were incubated for 24 h. Supernatants were collected and processed to measure TNFα and IL-12 by ELISA. All data is presented as mean+SEM. For comparison of more than two groups, ANOVA was used. All statistical analysis was performed using GraphPad Prism™ 10.

[2] = system: Collagen-Induced Arthritis (CIA) mouse model; experiment: Collagen-induced arthritis (CIA) mouse model; format: in vivo, DBA-1 mice; details: 50 mg/kg dose, compared to the vehicle
Text: Female DBA-1 mice (8-9 weeks old) were used in the CIA mouse model. This model is widely used to evaluate efficacy of immunomodulatory drugs on autoimmune diseases, such as arthritis. DBA/1 mice develop collagen-induced arthritis (CIA) after immunization with bovine type II collagen emulsified in complete Freund's adjuvant (CFA), followed by a booster dose 21 days later. Both the immunizations were given subcutaneously, approximately 25 mm from the base of the tail on opposite sides. Immunizations were performed under a short duration isoflurane anesthesia. Mice were evaluated for the disease progression up to 45 days. […] Statistical significance was determined using Two-way ANOVA with multiple comparison tests to compare all groups to the vehicle.

[3] = biological target: T1, human SPPL2a (Homo sapiens, UniProt Q8TCT8); experiment: Nuclear translocation imaging assay for human SPPL2a (SPPL2a reporter U2OS cell line); format: cell-based; details: U2OS reporter cells, 24 h incubation
T1 construct: expressed in transfected cells; host or cells: U2OS (SPPL2a reporter cell line)
T1 sequence (Q8TCT8 26-520): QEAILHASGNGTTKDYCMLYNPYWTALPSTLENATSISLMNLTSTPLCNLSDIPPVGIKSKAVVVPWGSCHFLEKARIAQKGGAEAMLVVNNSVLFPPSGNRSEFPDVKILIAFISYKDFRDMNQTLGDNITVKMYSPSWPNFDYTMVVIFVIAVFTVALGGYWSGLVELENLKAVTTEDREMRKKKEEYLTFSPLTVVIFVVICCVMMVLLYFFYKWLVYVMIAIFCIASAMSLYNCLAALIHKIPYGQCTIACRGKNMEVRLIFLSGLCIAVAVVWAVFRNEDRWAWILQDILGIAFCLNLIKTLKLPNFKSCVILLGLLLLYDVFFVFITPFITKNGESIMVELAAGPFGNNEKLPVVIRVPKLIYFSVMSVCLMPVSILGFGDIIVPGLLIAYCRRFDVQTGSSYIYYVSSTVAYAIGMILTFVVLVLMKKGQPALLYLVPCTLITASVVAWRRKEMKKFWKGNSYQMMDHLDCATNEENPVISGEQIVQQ
Description: The nuclear translocation imaging assays for human SPPL2a were performed using an SPPL2a reporter U2OS cell line as previously described (Velcicky et al 2018, Zhang et al 2017). These cells stably express human SPPL2a and a doxycycline inducible eGFP TNFα (aa 1-76) NTF fusion protein (SPPL2a substrate). Both Example 1 and Example A were added at indicated concentrations and cells were incubated for 24 h, washed, and fixed. Nuclei were stained with DAPI. Images were acquired on a confocal fluorescence microscope system LSM-800 (Carl Zeiss). Image data was analyzed by using mid-section from Z-stack images of at least 10 individual cells per sample. All data is presented as mean+SEM. Statistical significance was calculated with the ANOVA test using GraphPad Prism™ 10.

[4] = In vivo epimerization and PK, statements covering all three preclinical models; design: species or system Sprague Dawley rats, beagle dogs, cynomolgus monkeys
Description: These factors may lead to accumulation and potenial toxicity. The effect on epimerization by substitution at the chiral carbon was tested by comparing Example A, Example 1, and Example 29 in the following preclinical in vivo pharmacokinetic models: Sprague Dawley rats, beagle dogs, and cynomolgus monkeys.
Two groups of male Sprague Dawley rats (n=3 each) received either a single 10 mg/kg PO dose of Example A or Example 1 in a vehicle consisting of 0.5% methylcellulose in water. Blood samples were collected at 0.25, 0.5, 1, 2, 4, and 6 hours postdose.
Male Sprague Dawley rats (n=3 each) received a single 3 mg/kg PO dose of Example 29 in a vehicle consisting of 5% dimethylacetamide (DMAC) in 50 mM citrate buffer w/0.5% methylcellulose. Blood samples were collected at predose, 0.25, 0.5, 1, 2, 4, 6, 8, 12, and 24 hours postdose.
(§1) Three groups of male cynomolgus monkeys (n=2 each) received either a single 3 mg/kg PO dose of Example A, Example 1, or Example 29 in a vehicle consisting of 5% dimethylacetamide (DMAC) in 50 mM citrate buffer w/0.5% methylcellulose. Blood samples were collected at predose, 0.25, 0.5, 1, 2, 3, 4, 6, 8, 12, and 24 hours postdose.
as §1, with “beagle dogs” for “cynomolgus monkeys”, “12, 24” for “12,”, “48” for “24”
All blood samples were collected using EDTA as the anticoagulant and centrifuged to obtain plasma. Plasma concentrations of Example A, Example 1, and their respective diastereomers were determined under non-GLP conditions using standard reverse phase LC-MS/MS bioanalytical methods. The individual plasma concentration-time data was used to determine the area under the curve (AUC) values using GraphPad Prism (v9.3.1).

In the case of `CNC(=O)c1nc(C)c(C(=O)NC[C@@H](C)C(=O)N[C@@H]2C(=O)N3CCCN3Cc3ccccc32)s1` [Example A, N^2,4-dimethyl-N^5—((R)-2-methyl-3-oxo-3-(((S)-11-oxo-2,3,10,11-tetrahydro-1H,5H-benzo[d]pyrazolo[1,2-a][1,2]diazepin-10-yl)amino)propyl)thiazole-2,5-dicarboxamide], the IL-12 secretion ([1]; MoDC supernatants, ELISA) is reported as “significantly decreased”, the TNFα secretion ([1]; MoDC supernatants, ELISA) is reported as “significantly decreased” and the MoDC maturation ([1]; compared to the stimulation only condition) is reported as “significantly decreased”. For the same compound, the “clinical signs of CIA” value [2] was “significantly reduced”, the “inhibition of nuclear translocation of TNFα-GFP” value [3] was “inhibited; also recorded: comparable and significant TNFα-GFP inhibition of nuclear translocation” and the “in vivo epimerization at the chiral carbon in the 7-membered ring” value ([4]; rat, monkey and dog models, PO) was “exhibits epimerization in vivo; also recorded: observed in all three models”. The “exposures and PK (other than epimerization) across species” value ([4]; rats, monkeys, dogs) was “consistent”.

— US20250263416A1, “SPPL2a INHIBITORS” (Incyte Corporation, priority 2024, published 2025)
